Results taken from ChEMBL document CHEMBL4020801, “New merosesquiterpenes from a Vietnamese marine sponge of Spongia sp. and their biological activities” (Bioorg Med Chem Lett, 2017).
Converted amounts (≈) assume the structure as drawn.

Assays:
WI-38 = test: Cytotoxicity against human WI38 cells assessed as decrease in cell viability after 72 hrs by WST8 assay; type: cell-based; conditions: WI-38, 72 h
HeLa = test: Cytotoxicity against human HeLa cells assessed as decrease in cell viability after 72 hrs by WST8 assay; type: functional, cell-based
A549 = test: Cytotoxicity against human A549 cells assessed as decrease in cell viability after 72 hrs by WST8 assay; type: functional, cell-based; conditions: A549, 72 h
MCF7 = test: Cytotoxicity against human MCF7 cells assessed as decrease in cell viability after 72 hrs by WST8 assay; type: functional, cell-based; conditions: MCF7, 72 h
Escherichia coli = test: Antibacterial activity against Escherichia coli NBRC 102203 after 12 hrs by MTT assay; type: functional; conditions: NBRC 102203, 12 h
Klebsiella pneumoniae = test: Antibacterial activity against Klebsiella pneumoniae NBRC 14940 after 12 hrs by MTT assay; type: functional; conditions: NBRC 14940, 12 h
Bacillus subtilis = test: Antibacterial activity against Bacillus subtilis NBRC 13719 after 12 hrs by MTT assay; type: functional; conditions: NBRC 13719, 12 h
Staphylococcus aureus = test: Antibacterial activity against Staphylococcus aureus NBRC 100910 after 12 hrs by MTT assay; type: functional; conditions: NBRC 100910, 12 h

SMILES | IC50 (WI-38) | IC50 (HeLa) | IC50 (A549) | IC50 (MCF7) | MIC (Escherichia coli) | MIC (Klebsiella pneumoniae) | MIC (Bacillus subtilis) | MIC (Staphylococcus aureus)
C=C1CCC[C@H]2[C@](C)(CC3=C(O)C(=O)C=C(NCCCSC)C3=O)[C@@H](C)CC[C@]12C | 8.8 µM | 8 µM | 6.2 µM | 8.7 µM | > 100 µM | > 100 µM | 12.5 µM (≈ 5.4 µg/mL) | 12.5 µM (≈ 5.4 µg/mL)
CC1(C)S[C@@H]2[C@H](NC(=O)[C@H](N)c3ccccc3)C(=O)N2[C@H]1C(=O)O [AMPICILLIN] | – | – | – | – | – | – | 6.25 µM (≈ 2.18 µg/mL) | 6.25 µM (≈ 2.18 µg/mL)
C=C1CCC[C@@H]2[C@@](C)(Cc3cc(C(=O)OC)cc(OC)c3O)[C@H](C)CC[C@@]12C | > 50 µM | > 50 µM | > 50 µM | > 50 µM | > 100 µM | > 100 µM | > 100 µM | > 100 µM
C=C1CCC[C@@H]2[C@@](C=O)(Cc3cc(C(=O)OC)cc(OC)c3O)[C@H](C)CC[C@@]12C | > 50 µM | > 50 µM | > 50 µM | > 50 µM | > 100 µM | > 100 µM | > 100 µM | > 100 µM
C=C1CCC[C@H]2[C@](C)(CC3=C(O)C(=O)C=C(OCCCC)C3=O)[C@@H](C)CC[C@]12C | 8.2 µM | 7.6 µM | 6.6 µM | 9.6 µM | > 100 µM | > 100 µM | 6.25 µM (≈ 2.5 µg/mL) | 12.5 µM (≈ 5.01 µg/mL)
C=C1CCC[C@@H]2[C@@](CO)(Cc3cc(C(=O)OC)c(O)c(OC)c3O)[C@H](C)CC[C@@]12C | 42.1 µM | > 50 µM | > 50 µM | > 50 µM | > 100 µM | > 100 µM | > 100 µM | > 100 µM
NC[C@H]1O[C@H](O[C@H]2[C@H](O)[C@@H](O[C@H]3O[C@H](CO)[C@@H](O)[C@H](N)[C@H]3O)[C@H](N)C[C@@H]2N)[C@H](O)[C@@H](O)[C@@H]1O [KANAMYCIN] | – | – | – | – | 12.5 µM (≈ 6.06 µg/mL) | 6.25 µM (≈ 3.03 µg/mL) | – | –
C=C1CCC[C@H]2[C@](C)(CC3=C(O)C(=O)C=C(NCCc4ccccc4)C3=O)[C@@H](C)CC[C@]12C | 3 µM | 5 µM | 4 µM | 6.5 µM | > 100 µM | > 100 µM | 6.25 µM (≈ 2.8 µg/mL) | 6.25 µM (≈ 2.8 µg/mL)
C=C1CCC[C@@H]2[C@@](C)(Cc3cc(C(=O)OC)c(O)c(OC)c3O)[C@H](C)CC[C@@]12C | > 50 µM | > 50 µM | > 50 µM | > 50 µM | > 100 µM | > 100 µM | 12.5 µM (≈ 5.03 µg/mL) | > 100 µM
C=C1CCC[C@@H]2[C@@](CO)(Cc3cc(C(=O)OC)cc(OC)c3O)[C@H](C)CC[C@@]12C | > 50 µM | > 50 µM | > 50 µM | 42.6 µM | > 100 µM | > 100 µM | > 100 µM | > 100 µM
O=c1[nH]cc(F)c(=O)[nH]1 [FLUOROURACIL] | 6.8 µM | 5.3 µM | 4.7 µM | 5.6 µM | – | – | – | –
C=C1CCC[C@H]2[C@](C)(CC3=C(O)C(=O)C=C(OC)C3=O)[C@@H](C)CC[C@]12C [ILIMAQUINONE] | 9.7 µM | 7.6 µM | 5.9 µM | 8.3 µM | > 100 µM | > 100 µM | 6.25 µM (≈ 2.24 µg/mL) | 6.25 µM (≈ 2.24 µg/mL)
C=C1CCC[C@H]2[C@](C)(CC3=C(O)C(=O)C=C(NCC(C)C)C3=O)[C@@H](C)CC[C@]12C | 3.5 µM | 7.6 µM | 6.7 µM | 4.6 µM | > 100 µM | > 100 µM | 12.5 µM (≈ 4.99 µg/mL) | 25 µM (≈ 9.99 µg/mL)
C=C1CCC[C@H]2[C@](C)(CC3=C(O)C(=O)C=C(NCC(C)CC)C3=O)[C@@H](C)CC[C@]12C (some centres not stated) | 6.9 µM | 4.8 µM | 8.9 µM | 7.6 µM | > 100 µM | > 100 µM | 6.25 µM (≈ 2.59 µg/mL) | 6.25 µM (≈ 2.59 µg/mL)
C=C1CCC[C@@H]2[C@@](C)(Cc3cc(C(=O)OC)cc(O)c3O)[C@H](C)CC[C@@]12C | > 50 µM | > 50 µM | > 50 µM | > 50 µM | > 100 µM | > 100 µM | 6.25 µM (≈ 2.33 µg/mL) | 6.25 µM (≈ 2.33 µg/mL)
C=C1CCC[C@@H]2[C@@](C=O)(Cc3cc(C(=O)OC)c(O)c(OC)c3O)[C@H](C)CC[C@@]12C | 8.7 µM | 7.2 µM | 7.8 µM | 5 µM | > 100 µM | > 100 µM | 25 µM (≈ 10.4 µg/mL) | > 100 µM
